Measurements: US20250074911A1, “MACROCYCLIC BTK INHIBITORS” (Crossfire Oncology Holding B.V., priority 2021, published 2025)
pIC50: −log10 of the molar value. Where two headings read alike, the source gives them in different places.

Tests used:
REC-1 T474I cell lines = experiment: Cell proliferation assay REC-1 BTK T474I knock-in cells (ATPlite, 72 hours); type: cell-based; details: read-out: IC50 REC-1 T474I
Experimental: Cell proliferation assay Generation of BTK […] knock-in cell lines wt-REC-1 cell lines expressing mutant BTK were created at Synthego Corporation. Cell lines expressing BTK […] was generated via CRISPR/Cas9. Monoclonal REC-1 […] cell lines were obtained by single cell cloning. The mutation status of all cell lines was confirmed via sequencing. […] Luminescence was recorded on an Envision multimode reader. The cell signal at the start of incubation was recorded separately in order to distinguish between cell population growth and cell death. In addition, maximum growth was determined by incubation of a duplicate without compound in the presence of 0.3% DMSO. Percentage growth was used as the main y-axis signal.

[1] = system: wt-TMD8 diffuse large B-cell lymphoma cells; experiment: Cell proliferation assay wt-TMD8 (ATPlite, 120 hours); type: cell-based; details: read-out: IC50 wt-TMD8
Experimental: Cell proliferation assay wt-TMD8 diffuse large B-cell lymphoma cells were purchased from Tokyo Medical and Dental University and cultured in RPMI-1640 cell culture medium (cat. no. 61870036, Life Technologies), supplemented with 10% (v/v) heat-inactivated fetal bovine calf serum and 1% penicillin/[…]. 1600 cells per well (in 45 μl) were seeded in a white 384-well culture plate (cat. no. 781080, Greiner Bio-One) and allowed to rest for at least 5 hours at 37° C., 95% humidity, and 5% CO2. 5 μl compound solution was added to the cells and incubation was continued for 120 hours (5 days), followed by addition of 24 μl ATPlite 1Step™ (PerkinElmer, Groningen, The Netherlands) solution was added to each well. Luminescence was recorded on an Envision multimode reader. The cell signal at the start of incubation was recorded separately in order to distinguish between cell population growth and cell death. In addition, maximum growth was determined by incubation of a duplicate without compound in the presence of 0.3% DMSO. Percentage growth was used as the main y-axis signal.

[2] = system: wt-REC-1 mantle cell lymphoma cells; experiment: Cell proliferation assay wt-REC-1 (ATPlite, 72 hours); type: cell-based
Experimental: Results of the BTK […] binding affinity are shown in Table 1 below. • IC50 BTK […]: […] wt-REC-1 mantle cell lymphoma cells were purchased from American Type Culture Collection via Synthego Corporation (cat. no. CRL-3004, ATCC). […] Luminescence was recorded on an Envision multimode reader. The cell signal at the start of incubation was recorded separately in order to distinguish between cell population growth and cell death. In addition, maximum growth was determined by incubation of a duplicate without compound in the presence of 0.3% DMSO. Percentage growth was used as the main y-axis signal. IC50s were fitted by non-linear regression using IDBS XLfitTM5 using a 4-parameter logistic curve, yielding a maximum signal, minimum signal, hill-parameter and IC50. Results of the wt-REC-1 proliferation are shown in Table 1 below. • IC50 wt-REC-1: […]

[3] = target: full-length wt-BTK enzyme (Homo sapiens (Human), UniProt Q06187); experiment: Biochemical kinase assay wt-BTK (IMAP)
Sequence of full-length wt-BTK enzyme (Q06187 whole entry): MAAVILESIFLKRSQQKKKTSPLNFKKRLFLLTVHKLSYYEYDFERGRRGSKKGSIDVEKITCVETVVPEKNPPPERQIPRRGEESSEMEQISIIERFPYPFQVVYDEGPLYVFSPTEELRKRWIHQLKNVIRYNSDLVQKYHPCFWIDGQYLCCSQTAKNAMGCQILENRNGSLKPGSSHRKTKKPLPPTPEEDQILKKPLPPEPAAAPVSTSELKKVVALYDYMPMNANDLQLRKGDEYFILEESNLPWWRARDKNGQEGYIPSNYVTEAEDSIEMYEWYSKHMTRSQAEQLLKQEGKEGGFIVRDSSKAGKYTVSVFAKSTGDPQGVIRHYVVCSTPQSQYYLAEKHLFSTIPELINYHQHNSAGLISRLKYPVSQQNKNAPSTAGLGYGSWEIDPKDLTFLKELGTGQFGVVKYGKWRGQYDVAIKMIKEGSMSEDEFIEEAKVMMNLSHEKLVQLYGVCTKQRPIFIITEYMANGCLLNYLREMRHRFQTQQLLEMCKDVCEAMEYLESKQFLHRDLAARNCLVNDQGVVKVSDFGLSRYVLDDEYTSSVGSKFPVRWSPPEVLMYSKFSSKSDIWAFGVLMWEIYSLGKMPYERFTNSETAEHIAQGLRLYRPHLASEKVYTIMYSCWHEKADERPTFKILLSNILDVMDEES
Experimental: Biochemical kinase assay wt-BTK To determine the inhibitory activity of compounds on wt-BTK enzyme activity, the IMAP® assay (Molecular Devices) was used. […] After pre-incubation of 1 hour in the dark at room temperature, fluorescein-labeled MBP-derived substrate peptide (Molecular Devices, cat. no. RP 7123) was added, followed by ATP to start the reaction. Final enzyme concentration was 1.2 nM, final substrate concentration 50 nM, and final ATP concentration was 4 μM. The reaction was allowed to proceed for 2 hours at room temperature in the dark. The reaction was stopped by quenching with IMAP progressive binding solution according to the protocol of the manufacturer (Molecular Devices). Fluorescein polarization was measured on an Envision multimode reader (Perkin Elmer, Waltham, MA, U.S.A.). […] Results of the wt-BTK binding affinity are shown in Table 1 below. • IC50 wt-BTK: […]

[4] = target: full-length BTK C481S enzyme (Homo sapiens (Human), UniProt Q06187, C481S); experiment: Biochemical kinase assay BTK C481S (IMAP)
Sequence of full-length BTK C481S enzyme (Q06187 whole entry C481S): as the sequence (Q06187 whole entry) above, with C481S counted along it
Experimental: Biochemical kinase assay BTK […] To determine the inhibitory activity of compounds on BTK C481S enzyme activity, the IMAP® assay (Molecular Devices) was used. […] After pre-incubation of 1 hour in the dark at room temperature, fluorescein-labeled MBP-derived substrate peptide (Molecular Devices, cat. no. RP 7123) was added, followed by ATP to start the reaction. Final enzyme concentration was 1.2 nM final substrate concentration 50 nM, and final ATP concentration was 7 μM. The reaction was allowed to proceed for 2 hours at room temperature in the dark. The reaction was stopped by quenching with IMAP progressive binding solution according to the protocol of the manufacturer (Molecular Devices). Fluorescein polarization was measured on an Envision multimode reader (Perkin Elmer, Waltham, MA, U.S.A.). IC50 were calculated using XLfitTM5 software (ID Business Solutions, Ltd., Surrey, U.K.). Results of the BTK […] binding affinity are shown in Table 1 below. • IC50 BTK […]: […]

[5] = B-cell, wt-TMD8 cells, 120 hours, ATPlite

| Compound | pIC50 (REC-1 T474I cell lines; Homo sapiens, Rec1, 72 h) | pIC50 ([1]; B-cell, 120 h) | pIC50 ([2]; 72 h, read-out: IC50 wt-REC-1) | pIC50 [3] | pIC50 [4] | pIC50 (REC-1 T474I cell lines; Homo sapiens, Rec1, 72 hours) | pIC50 [1, 5] | pIC50 ([2]; 72 h; read-out: IC50 wt-REC-1) | pIC50 (REC-1 T474I cell lines; 72 hours) | pIC50 ([1]; wt-TMD8 cells, 120 hours, ATPlite) | pIC50 ([2]; 72 hours; read-out: IC50 wt-REC-1) |
| --- | --- | --- | --- | --- | --- | --- | --- | --- | --- | --- | --- |
| CN1C/C=C/c2cnc(N)c3c(-c4ccc(C(=O)Nc5cc(C(F)(F)F)ccn5)cc4)nc(n23)[C@@H]2CCCN(C2)C(=O)CCCC1 [Example 129] | 5.00 to 6.30 | > 7.00 | 6.00 to 7.00 | > 8.30 | > 8.30 |  |  |  |  |  |  |
| C[C@@H]1CCn2nc(-c3ccc(C(=O)Nc4cc(C(F)(F)F)ccn4)cc3)c3c(N)ncc(c32)/C=C/CCO[C@@H](C)CC(=O)N1 [Example 158] |  |  |  | > 8.30 | > 8.30 | 5.00 to 6.30 | > 7.00 | 6.00 to 7.00 |  |  |  |
| COc1ccc(F)cc1C(=O)NCc1ccc(-c2nc3n4c(cnc(N)c24)/C=C/CCN[C@H](C)CC(=O)N[C@@H]2CC[C@@H]3C2)cc1 [Example 214] |  |  |  | > 8.30 | > 8.30 | 5.00 to 6.30 | > 7.00 | 6.00 to 7.00 |  |  |  |
| C[C@H]1CC(=O)N[C@@H]2CCC[C@H](C2)n2nc(-c3ccc(C(=O)Nc4cc(C#N)ccn4)cc3)c3c(N)ncc(c32)/C=C/CCO1 [Example 161] |  |  |  | > 8.30 | > 8.30 | > 7.00 | > 7.00 | > 7.00 |  |  |  |
| Nc1ncc2n3c(nc(-c4ccc(C(=O)Nc5cc(C(F)(F)F)ccn5)cc4)c13)[C@@H]1CCC[C@H](C1)NC(=O)CCOCC/C=C/2 [Example 177] |  |  |  | > 8.30 | > 8.30 | 6.30 to 7.00 | > 7.00 | > 7.00 |  |  |  |
| Nc1ncc2c3c1c(-c1ccc(C(=O)Nc4cc(C(F)(F)F)ccn4)cc1)nn3[C@@H]1CCC[C@H](C1)NC(=O)CCCCCC/C=C/2 [Example 16] |  |  |  | > 8.30 | > 8.30 | > 7.00 | > 7.00 | > 7.00 |  |  |  |
| Nc1ncc2c3c1c(-c1ccc(C(=O)Nc4cc(C(F)(F)F)ccn4)cc1)nn3[C@@H]1CCC[C@H](C1)C(=O)NCC/C=C/2 [Example 4] |  |  |  | 7.30 to 8.30 | 7.30 to 8.30 | 5.00 to 6.30 | 6.00 to 7.00 | 6.00 to 7.00 |  |  |  |
| CC(=O)N1CC/C=C/c2cnc(N)c3c(-c4ccc(C(=O)Nc5cc(C(F)(F)F)ccn5)cc4)nn(c23)[C@@H]2CCC[C@H](C2)NC(=O)CC1 [Example 36] |  |  |  | > 8.30 | > 8.30 | 6.30 to 7.00 | > 7.00 | > 7.00 |  |  |  |
| C[C@H]1/C=C/c2cnc(N)c3c(-c4ccc(C(=O)Nc5cc(C(F)(F)F)ccn5)cc4)nn(c23)[C@@H]2CCC[C@H](C2)NC(=O)CCCN1C [Example 43] |  |  |  | > 8.30 | > 8.30 | 5.00 to 6.30 | > 7.00 | 6.00 to 7.00 |  |  |  |
| Nc1ncc2c3c1c(-c1ccc(C(=O)Nc4cc(F)ccn4)cc1)nn3[C@@H]1CCC[C@H](C1)NC(=O)CCCCC/C=C/2 [Example 196] |  |  |  | > 8.30 | > 8.30 | > 7.00 | > 7.00 | > 7.00 |  |  |  |
| COc1cc(-c2nn3c4c(cnc(N)c24)/C=C/CCCCCC(=O)N[C@@H]2CCC[C@@H]3C2)ccc1C(=O)Nc1cc(C(F)(F)F)ccn1 [Example 197] |  |  |  | > 8.30 | > 8.30 | 6.30 to 7.00 | > 7.00 | > 7.00 |  |  |  |
| [2H]C1([2H])/C=C/c2cnc(N)c3c(-c4ccc(C(=O)Nc5cc(C(F)(F)F)ccn5)cc4)nn(c23)[C@@H]2CCC[C@H](C2)NC(=O)CCCC1 [Example 137] |  |  |  | > 8.30 | > 8.30 | > 7.00 | > 7.00 | > 7.00 |  |  |  |
| CN1CCCCc2cnc(N)c3c(-c4ccc(C(=O)Nc5cc(C(F)(F)F)ccn5)cc4)nn(c23)[C@@H]2CCC[C@H](C2)C(=O)NCC1 [Example 140] |  |  |  | > 8.30 | > 8.30 | 5.00 to 6.30 | > 7.00 | 5.00 to 6.00 |  |  |  |
| C[C@@H]1CC(=O)N[C@@H]2CC[C@H](C2)c2nc(-c3ccc(C(=O)Nc4cc(C#N)ccn4)cc3)c3c(N)ncc(n23)/C=C/CCN1 [Example 218] |  |  |  | > 8.30 | > 8.30 |  |  |  | 5.00 to 6.30 | > 7.00 | > 7.00 |
| CC(=O)N1CC/C=C/c2cnc(N)c3c(-c4ccc(C(=O)Nc5cc(C(F)(F)F)ccn5)cc4)nc(n23)[C@@H]2CC[C@H](C2)NC(=O)C1 [Example 220] |  |  |  | > 8.30 | > 8.30 | 5.00 to 6.30 | > 7.00 | 5.00 to 6.00 |  |  |  |
| Nc1ncc2c3c1c(-c1ccc(C(=O)Nc4cc(C(F)(F)F)ccn4)cc1)nn3[C@@H]1CCC[C@H](C1)NC(=O)CCCNC/C=C/2 [Example 15] |  |  |  | > 8.30 | > 8.30 |  | > 7.00 | 6.00 to 7.00 |  |  |  |
| Nc1ncc2c3c1c(-c1ccc(C(=O)Nc4cc(C(F)(F)F)ccn4)cc1)nn3[C@@H]1CCC[C@H](C1)NC(=O)CCCNC/C=C/C2 [Example 107] |  |  |  | 7.30 to 8.30 | 7.30 to 8.30 | 5.00 to 6.30 |  | 5.00 to 6.00 |  |  |  |
| Nc1ncc2n3c(nc(-c4ccc(C(=O)Nc5cc(C(F)(F)F)ccn5)cc4)c13)[C@@H]1CCC[C@H](C1)NC(=O)CCC/C=C/C2 [Example 133a] |  |  |  | 7.30 to 8.30 | 7.30 to 8.30 | 5.00 to 6.30 |  | 6.00 to 7.00 |  |  |  |
| Nc1ncc2c3c1c(-c1ccc(C(=O)Nc4cc(C(F)(F)F)ccn4)cc1)nn3[C@@H]1CCC[C@H](C1)C(=O)NCCCCCC2 [Example 117] |  |  |  | 7.30 to 8.30 | > 8.30 | 5.00 to 6.30 |  | 6.00 to 7.00 |  |  |  |
